From US12324802B2, “Modulators of cystic fibrosis transmembrane conductance regulator” (Vertex Pharmaceuticals Incorporated, priority 2020, dated 2025)
Read-outs that look alike come from different tables or passages of the source.

How the values were obtained:
[1] = biological target: T1, CFTR (F508del/MF-HBE cells) (Homo sapiens, UniProt P13569, DEL508-508); test: Ussing chamber assay of CFTR-mediated short-circuit currents (identification of potentiator compounds); format: cell-based; settings: CFTR-mediated ISC in F508del/MF-HBE cells; incubated 18-24 hours at 37° C. with 10 μM (14S)-8-[3-(2-{dispiro[2.0.2.1]heptan-7-yl}ethoxy)-1H-pyrazol-1-yl]-...-2,2,4-trione, 20% human serum
T1 construct: human bronchial epithelial (HBE) cells derived from CF subjects heterozygous for F508del and a minimal function CFTR mutation; endogenous in cells; host or cells: primary human bronchial epithelial cells from CF subjects (F508del/MF genotype)
T1 sequence (P13569 with tags, fused parts or gaps DEL508-508): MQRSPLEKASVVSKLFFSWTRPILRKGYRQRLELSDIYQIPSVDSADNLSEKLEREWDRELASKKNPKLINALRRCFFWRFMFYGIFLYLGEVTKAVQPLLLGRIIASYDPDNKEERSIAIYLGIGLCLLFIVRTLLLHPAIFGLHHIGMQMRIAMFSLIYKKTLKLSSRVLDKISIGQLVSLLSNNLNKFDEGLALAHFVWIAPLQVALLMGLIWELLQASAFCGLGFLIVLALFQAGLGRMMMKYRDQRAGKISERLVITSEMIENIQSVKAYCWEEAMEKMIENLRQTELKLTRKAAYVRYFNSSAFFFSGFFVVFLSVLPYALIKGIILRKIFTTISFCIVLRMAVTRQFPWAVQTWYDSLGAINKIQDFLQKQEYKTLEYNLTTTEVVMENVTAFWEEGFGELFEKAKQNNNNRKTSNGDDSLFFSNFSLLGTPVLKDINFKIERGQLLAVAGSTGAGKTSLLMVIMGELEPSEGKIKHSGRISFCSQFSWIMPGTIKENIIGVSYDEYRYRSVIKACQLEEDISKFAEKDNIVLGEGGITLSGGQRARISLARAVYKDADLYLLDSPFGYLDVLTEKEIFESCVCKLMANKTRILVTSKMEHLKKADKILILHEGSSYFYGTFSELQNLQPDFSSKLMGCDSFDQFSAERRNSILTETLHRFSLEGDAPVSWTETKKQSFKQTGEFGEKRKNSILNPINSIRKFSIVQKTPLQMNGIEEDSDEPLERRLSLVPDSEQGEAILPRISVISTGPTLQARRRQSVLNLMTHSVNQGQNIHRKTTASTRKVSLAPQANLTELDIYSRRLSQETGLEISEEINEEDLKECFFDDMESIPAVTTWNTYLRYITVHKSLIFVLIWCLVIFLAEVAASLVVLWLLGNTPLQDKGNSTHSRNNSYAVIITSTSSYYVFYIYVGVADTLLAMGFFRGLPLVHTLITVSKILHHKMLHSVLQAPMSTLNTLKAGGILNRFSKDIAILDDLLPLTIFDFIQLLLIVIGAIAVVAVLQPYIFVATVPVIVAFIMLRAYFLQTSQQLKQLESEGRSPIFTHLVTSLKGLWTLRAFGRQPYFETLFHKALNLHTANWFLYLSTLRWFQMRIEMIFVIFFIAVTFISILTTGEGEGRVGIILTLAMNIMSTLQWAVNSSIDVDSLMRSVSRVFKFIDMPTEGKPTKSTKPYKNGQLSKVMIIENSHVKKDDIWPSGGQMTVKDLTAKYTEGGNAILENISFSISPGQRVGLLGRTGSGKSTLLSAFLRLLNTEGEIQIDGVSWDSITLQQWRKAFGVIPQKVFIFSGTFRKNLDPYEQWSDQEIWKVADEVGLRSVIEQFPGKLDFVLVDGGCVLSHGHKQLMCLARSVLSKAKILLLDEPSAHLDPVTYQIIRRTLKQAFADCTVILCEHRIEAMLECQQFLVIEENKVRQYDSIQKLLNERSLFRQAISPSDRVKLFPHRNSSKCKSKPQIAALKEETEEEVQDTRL
Outline: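 Short-circuit current was voltage-clamped at 0 mV and 37 °C in pH 7.4 HEPES buffers, with amiloride (30 μM) on the apical side. The CFTR component was defined as forskolin (20 μM) peak minus residual current after BPO/GlyH-101/CFTRinh-172 at 20 μM each. Cells had been pretreated 18–24 h with potentiator concentrations and 10 μM corrector in 20% human serum, kept throughout the measurement.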

Structure (SMILES): CC(C)(C)OC(=O)Nc1cc(C(F)(F)F)c2nc1-c1nnc(o1)C(OCc1ccccc1)(C(F)(F)F)CCCC(=O)N1CCN2CC1 (stereo not shown)
- ring closure, isolated yield (from CC(C)(C)OC(=O)Nc1cc(C(F)(F)F)c(N2CCNCC2)nc1-c1nnc(C(CCCC(=O)O)(OCc2ccccc2)C(F)(F)F)o1, amide bond, 15-membered ring, HATU/DIEA, DMF, 14.5 mM, 25.0 °C, 0.083 h): 80%

Structure (SMILES): CC(C)(C)OC(=O)Nc1cc(C(F)(F)F)c2nc1-c1nnc(o1)C(OCc1ccccc1)(C(F)(F)F)CCCCC1CCN2C1 (stereo not shown)
- ring closure, isolated yield (from CC(C)(C)OC(=O)Nc1cc(C(F)(F)F)c(Br)nc1-c1nnc(C(CCCCC2CCNC2)(OCc2ccccc2)C(F)(F)F)o1, snar bond, 14-membered ring, DIEA, MeCN, 6.33 mM, 80.0 °C, 16.0 h): 79%

Structure (SMILES): CC1(C)CCCC(OCc2ccccc2)(C(F)(F)F)C(=O)NNC(=O)c2nc(c(C(F)(F)F)cc2[N+](=O)[O-])NCC1 (stereo not shown)
- ring closure, isolated yield (from CC(C)(CCCC(OCc1ccccc1)(C(=O)O)C(F)(F)F)CCNc1nc(C(=O)O)c([N+](=O)[O-])cc1C(F)(F)F, crosslinker bond, 15-membered ring, hydrazine/BOP/HOAt/DIEA, DMF, 2.1 mM, 30.0 °C): 84%

Structure (SMILES): CC1(C)CCCOCC(OCc2ccccc2)(C(F)(F)F)C2=NN=C(O2)c2nc(c(C(F)(F)F)cc2[N+](=O)[O-])N1 (stereo not shown)
- ring closure, isolated yield (from Cc1ccc(S(=O)(=O)Oc2nc(-c3nnc(C(COCCCC(C)(C)N)(OCc4ccccc4)C(F)(F)F)o3)c([N+](=O)[O-])cc2C(F)(F)F)cc1, snar bond, 14-membered ring, DIEA, DCM, 1.47 mM): 45%

Structure (SMILES): CC1(C)COCCCC(OCc2ccccc2)(C(F)(F)F)C(=O)NNC(=O)c2nc(c(C(F)(F)F)cc2[N+](=O)[O-])N1 (stereo not shown)
- ring closure, isolated yield (from CC(C)(COCCCC(OCc1ccccc1)(C(=O)O)C(F)(F)F)Nc1nc(C(=O)NN)c([N+](=O)[O-])cc1C(F)(F)F, amide bond, 15-membered ring, BOP/HOBt/DIEA, DMF, 2.78 mM, 25.0 °C, 24.0 h): 28%

Structure (SMILES): O=[N+]([O-])c1cc(C(F)(F)F)c2nc1-c1nnc(o1)C(OCc1ccccc1)(C(F)(F)F)CCC=CCC(CO)N2 (stereo not shown)
- ring closure, isolated yield (from C=CCCC(OCc1ccccc1)(c1nnc(-c2nc(NC(CO)CC=C)c(C(F)(F)F)cc2[N+](=O)[O-])o1)C(F)(F)F, rcm bond, 14-membered ring, Zhan-1B, DCE, 3.01 mM, 70.0 °C, 2.0 h): 32%

Structure (SMILES): O=[N+]([O-])c1cc(C(F)(F)F)c2nc1-c1nnc(o1)[C@@](OCc1ccccc1)(C(F)(F)F)CC=CCCC(C1CC1)N2 (stereo partly shown)
- ring closure, isolated yield (from C=CCCC(Nc1nc(-c2nnc([C@@](CC=C)(OCc3ccccc3)C(F)(F)F)o2)c([N+](=O)[O-])cc1C(F)(F)F)C1CC1, rcm bond, 14-membered ring, Zhan catalyst-1B, DCE, 2.49 mM, 66.0 °C, 1.6 h): 76%

Structure (SMILES): CC(C)(C)OC(=O)Nc1cc(C(F)(F)F)c2nc1-c1nnc(o1)C(OCc1ccccc1)(C(F)(F)F)CCC=CCC1CCCN21 (mixture of isomers)
- ring closure, isolated yield (from C=CCCC(OCc1ccccc1)(c1nnc(-c2nc(N3CCCC3CC=C)c(C(F)(F)F)cc2NC(=O)OC(C)(C)C)o1)C(F)(F)F, rcm bond, 14-membered ring, Grubbs II (21 mol%), DCE, 15.2 mM, 80.0 °C, 0.75 h): 84%

Structure (SMILES): CC(C)(C)OC(=O)Nc1cc(C(F)(F)F)c2nc1-c1nnc(o1)C(OCc1ccccc1)(C(F)(F)F)CCC=CCCC1CCCN21 (mixture of isomers)
- ring closure, isolated yield (from C=CCCC1CCCN1c1nc(-c2nnc(C(CCC=C)(OCc3ccccc3)C(F)(F)F)o2)c(NC(=O)OC(C)(C)C)cc1C(F)(F)F, rcm bond, 15-membered ring, Zhan-1B (24 mol%), DCE, 4.89 mM, 70.0 °C, 16.0 h): 53%

Structure (SMILES): CC(C)(C)OC(=O)Nc1cc(C(F)(F)F)c2nc1-c1nnc(o1)C(OCc1ccccc1)(C(F)(F)F)CCC=CC[C@@H]1CCCN21 (mixture of isomers)
- ring closure, isolated yield (from C=CCCC(OCc1ccccc1)(c1nnc(-c2nc(N3CCC[C@H]3CC=C)c(C(F)(F)F)cc2NC(=O)OC(C)(C)C)o1)C(F)(F)F, rcm bond, 14-membered ring, Zhan-1B (two charges), DCE, 7.07 mM, 70.0 °C, 20.0 h): 61%

Structure (SMILES): CC(C)(C)OC(=O)Nc1cc(C(F)(F)F)c2nc1-c1nnc(o1)C(OCc1ccccc1)(C(F)(F)F)CCC=CC[C@@H]1COCC(=O)N21 (mixture of isomers)
- ring closure, isolated yield (from C=CCCC(OCc1ccccc1)(c1nnc(-c2nc(N3C(=O)COC[C@H]3CC=C)c(C(F)(F)F)cc2NC(=O)OC(C)(C)C)o1)C(F)(F)F, rcm bond, 14-membered ring, Zhan-1B, DCE, 3.35 mM, 75.0 °C, 4.0 h): 73%

Structure (SMILES): CC(C)C1CCC=CC[C@](OCc2ccccc2)(C(F)(F)F)C2=NN=C(O2)c2nc(c(C(F)(F)F)cc2[N+](=O)[O-])N1 (mixture of isomers)
- ring closure, isolated yield (from C=CCCC(Nc1nc(-c2nnc([C@@](CC=C)(OCc3ccccc3)C(F)(F)F)o2)c([N+](=O)[O-])cc1C(F)(F)F)C(C)C, rcm bond, 14-membered ring, Zhan catalyst-1B, DCE, 15.4 mM, 70.0 °C): 47%

Structure (SMILES): CC1(C)CC2CC=Cc3ccc(F)c(c3)C(O)(C(F)(F)F)C3=NN=C(O3)c3nc(c(C(F)(F)F)cc3N(C(=O)OC(C)(C)C)C(=O)OC(C)(C)C)N2C1 (mixture of isomers)
- ring closure, isolated yield (from C=CCC1CC(C)(C)CN1c1nc(-c2nnc(C(O)(c3cc(I)ccc3F)C(F)(F)F)o2)c(N(C(=O)OC(C)(C)C)C(=O)OC(C)(C)C)cc1C(F)(F)F, cc_pd bond, 15-membered ring, Pd(OAc)2/P(o-tol)3/Et3N, MeCN, 7.06 mM, 80.0 °C, 22.0 h): 58%

Structure (SMILES): CC1(C)CC=CCC(OCc2ccccc2)(C(F)(F)F)C2=NN=C(O2)c2nc(c(C(F)(F)F)cc2[N+](=O)[O-])NC1 (mixture of isomers)
- ring closure, isolated yield (from C=CCC(C)(C)CNc1nc(-c2nnc(C(CC=C)(OCc3ccccc3)C(F)(F)F)o2)c([N+](=O)[O-])cc1C(F)(F)F, rcm bond, 14-membered ring, Zhan catalyst-1B, DCE, 2.0 mM, 80.0 °C, 16.0 h): 14%

Structure (SMILES): CC1(C)CCC=CC(F)(F)C(OCc2ccccc2)C2=NN=C(O2)c2nc(c(C(F)(F)F)cc2[N+](=O)[O-])N1 (mixture of isomers)
- ring closure, isolated yield (from C=CCCC(C)(C)Nc1nc(-c2nnc(C(OCc3ccccc3)C(F)(F)C=C)o2)c([N+](=O)[O-])cc1C(F)(F)F, rcm bond, 14-membered ring, Grubbs II, 1,2-dichloroethane, 1.85 mM, 75.0 °C, 1.67 h): 40%

Structure (SMILES): CC1(C)CCC=CC[C@@](OCc2ccccc2)(C(F)(F)F)C2=NN=C(O2)c2nc(c(C(F)(F)F)cc2N(C(=O)OC(C)(C)C)C(=O)OC(C)(C)C)N1 (mixture of isomers)
- ring closure, isolated yield (from C=CCCC(C)(C)Nc1nc(-c2nnc([C@](CC=C)(OCc3ccccc3)C(F)(F)F)o2)c(N(C(=O)OC(C)(C)C)C(=O)OC(C)(C)C)cc1C(F)(F)F, rcm bond, 14-membered ring, Zhan catalyst-1B, toluene, 8.66 mM, 70.0 °C, 3.0 h): 62%

Structure (SMILES): CC1(C)Nc2nc(c([N+](=O)[O-])cc2C(F)(F)F)C2=NN=C(O2)[C@@](OCc2ccccc2)(C(F)(F)F)CC=CCC1OCc1ccccc1 (mixture of isomers)
- ring closure, isolated yield (from C=CCC(OCc1ccccc1)C(C)(C)Nc1nc(-c2nnc([C@@](CC=C)(OCc3ccccc3)C(F)(F)F)o2)c([N+](=O)[O-])cc1C(F)(F)F, rcm bond, 14-membered ring, Zhan catalyst-1B, DCE, 2.36 mM, 70.0 °C, 18.0 h): 76%

Structure (SMILES): CCOC(=O)C1CCC=CCC(OCc2ccccc2)(C(F)(F)F)C2=NN=C(O2)c2nc(c(C(F)(F)F)cc2[N+](=O)[O-])N1 (mixture of isomers)
- ring closure, isolated yield (from C=CCCC(Nc1nc(-c2nnc(C(CC=C)(OCc3ccccc3)C(F)(F)F)o2)c([N+](=O)[O-])cc1C(F)(F)F)C(=O)OCC, rcm bond, 14-membered ring, Zhan-1B, DCE, 2.96 mM, 75.0 °C, 2.0 h): 82%

Structure (SMILES): COCC1CCC=CC[C@](OCc2ccccc2)(C(F)(F)F)C2=NN=C(O2)c2nc(c(C(F)(F)F)cc2[N+](=O)[O-])N1 (mixture of isomers)
- ring closure, isolated yield (from C=CCCC(COC)Nc1nc(-c2nnc([C@@](CC=C)(OCc3ccccc3)C(F)(F)F)o2)c([N+](=O)[O-])cc1C(F)(F)F, rcm bond, 14-membered ring, Zhan catalyst-1B, DCE, 3.15 mM, 60.0 °C, 5.75 h): 48%

Structure (SMILES): O=[N+]([O-])c1cc(C(F)(F)F)c2nc1-c1nnc(o1)C(OCc1ccccc1)(C(F)(F)F)CCC=CCC1CCS(=O)(=O)N21 (mixture of isomers)
- ring closure, isolated yield (from C=CCCC(OCc1ccccc1)(c1nnc(-c2nc(N3C(CC=C)CCS3(=O)=O)c(C(F)(F)F)cc2[N+](=O)[O-])o1)C(F)(F)F, rcm bond, 14-membered ring, Zhan-1B, DCE, 4.72 mM, 75.0 °C, 6.0 h): 19%

Structure (SMILES): O=[N+]([O-])c1cc(C(F)(F)F)c2nc1-c1nnc(o1)[C@@](OCc1ccccc1)(C(F)(F)F)CC=CCCC(c1ncco1)N2 (mixture of isomers)
- ring closure, isolated yield (from C=CCCC(Nc1nc(-c2nnc([C@@](CC=C)(OCc3ccccc3)C(F)(F)F)o2)c([N+](=O)[O-])cc1C(F)(F)F)c1ncco1, rcm bond, 14-membered ring, Zhan catalyst-1B, DCE, 2.9 mM, 70.0 °C, 4.25 h): 46%

Structure (SMILES): O=[N+]([O-])c1cc(Cl)c2nc1-c1nnc(o1)C(OCc1ccccc1)(C(F)(F)F)CCC=CC[C@@H]1CCCN21 (mixture of isomers)
- ring closure, isolated yield (from C=CCCC(OCc1ccccc1)(c1nnc(-c2nc(N3CCC[C@H]3CC=C)c(Br)cc2[N+](=O)[O-])o1)C(F)(F)F, rcm bond, 14-membered ring, Zhan-1B, DCE, 5.74 mM, 70.0 °C, 3.0 h): 73%

Structure (SMILES): CC1(C)CCC[C@H](O)C[C@](O)(C(F)(F)F)C2=NN=C(O2)c2nc(c(C(F)(F)F)cc2N)N1 [Compound 188, (6R,8S)-17-amino-12,12-dimethyl-6,15-bis(trifluoromethyl)-19-oxa-3,4,13,18-tetrazatricyclo[12.3.1.12,5]nonadeca-1(18),2,4,14,16-pentaene-6,8-diol]
- EC50 [1]: < 500 nM

Structure (SMILES): Nc1cc(C(F)(F)F)c2nc1-c1nnc(o1)[C@@](O)(C(F)(F)F)CCCCCC1(CCCCC1)N2 [Compound 193, (6R)-17-amino-6,15-bis(trifluoromethyl)spiro[19-oxa-3,4,13,18-tetrazatricyclo[12.3.1.12,5]nonadeca-1(18),2,4,14,16-pentaene-12,1′-cyclohexane]-6-ol]
- EC50 [1]: < 500 nM

Structure (SMILES): Nc1cc(C(F)(F)F)c2nc1-c1nnc(o1)[C@@](O)(C(F)(F)F)CCCCCC1(CCOCC1)N2 [Compound 205, (6R)-17-amino-6,15-bis(trifluoromethyl)spiro[19-oxa-3,4,13,18-tetrazatricyclo[12.3.1.12,5]nonadeca-1(18),2,4,14,16-pentaene-12,4′-tetrahydropyran]-6-ol]
- EC50 [1]: < 500 nM
